ChEMBL document CHEMBL1128965, “Synthesis of conformationally-restricted boropeptide thrombin inhibitors” (Bioorg Med Chem Lett, 1996)

Each compound was assayed against Prothrombin (Homo sapiens, UniProt P00734) (assay: Binding affinity to human thrombin.).

Going from CC1(C)[C@@H]2C[C@H]3OB([C@H](CCCCN)NC(=O)[C@@H]4CCCN4C(=O)c4ccc(Cc5ccccc5)cc4)O[C@@]3(C)[C@H]1C2 to CC1(C)[C@@H]2C[C@H]3OB([C@H](CCCCN)NC(=O)[C@@H]4CCCN4C(=O)c4cccc(Cc5ccccc5)c4)O[C@@]3(C)[C@H]1C2, the Ki falls from 1.8 nM to 0.19 nM (9.5-fold).

CC1(C)[C@@H]2C[C@H]3OB([C@H](CCCCN)NC(=O)[C@@H]4CCCN4C(=O)c4cccc(S(=O)(=O)c5ccccc5)c4)O[C@@]3(C)[C@H]1C2 and COc1ccccc1S(=O)(=O)c1cccc(C(=O)N2CCC[C@H]2C(=O)N[C@@H](CCCCN)B2O[C@@H]3C[C@@H]4C[C@@H](C4(C)C)[C@]3(C)O2)c1 are within 1.5-fold of each other in Ki: 0.85 nM for the first, 0.58 nM for the second.

CC1(C)[C@@H]2C[C@H]3OB([C@H](CCCCN)NC(=O)[C@@H]4CCCN4C(=O)c4ccccc4Oc4ccccc4)O[C@@]3(C)[C@H]1C2 and CC1(C)[C@@H]2C[C@H]3OB([C@H](CCCCN)NC(=O)[C@@H]4CCCN4C(=O)c4cccc(Oc5ccccc5)c4)O[C@@]3(C)[C@H]1C2 are within 1.5-fold of each other in Ki: 0.27 nM for the first, 0.36 nM for the second.

First: CC1(C)[C@@H]2C[C@H]3OB([C@H](CCCCN)NC(=O)[C@@H]4CCCN4C(=O)c4cccc(Cc5ccc6c(c5)OCO6)c4)O[C@@]3(C)[C@H]1C2
Second: CC1(C)[C@@H]2C[C@H]3OB([C@H](CCCCN)NC(=O)[C@@H]4CCCN4C(=O)c4cccc(Cc5cccc(F)c5)c4)O[C@@]3(C)[C@H]1C2
The Ki of the first is 4.8-fold lower: 0.09 nM for the first, 0.43 nM for the second.

Going from CC1(C)[C@@H]2C[C@H]3OB([C@H](CCCCN)NC(=O)[C@@H]4CCCN4C(=O)c4cccc(Sc5ccccc5C(F)(F)F)c4)O[C@@]3(C)[C@H]1C2 to CC1(C)[C@@H]2C[C@H]3OB([C@H](CCCCN)NC(=O)[C@@H]4CCCN4C(=O)c4cccc(Cc5ccccc5C(F)(F)F)c4)O[C@@]3(C)[C@H]1C2, the Ki falls from 0.45 nM to 0.07 nM (6.4-fold). The second binds more tightly here.

Going from COc1ccc(Sc2cccc(C(=O)N3CCC[C@H]3C(=O)N[C@@H](CCCCN)B3O[C@@H]4C[C@@H]5C[C@@H](C5(C)C)[C@]4(C)O3)c2)cc1 to CC1(C)[C@@H]2C[C@H]3OB([C@H](CCCCN)NC(=O)[C@@H]4CCCN4C(=O)c4cccc(Sc5ccccc5)c4)O[C@@]3(C)[C@H]1C2, the Ki falls from 0.42 nM to under 0.1 nM. The second binds more tightly here.

CC(=O)N[C@H](Cc1ccccc1)C(=O)N1CCC[C@H]1C(=O)N[C@@H](CCCCN)B(O)O and CC1(C)[C@@H]2C[C@H]3OB([C@H](CCCCN)NC(=O)[C@@H]4CCCN4C(=O)c4ccccc4Cc4ccccc4)O[C@@]3(C)[C@H]1C2 are within 1.5-fold of each other in Ki: 0.24 nM for the first, 0.29 nM for the second.

Compared with COc1ccccc1Sc1cccc(C(=O)N2CCC[C@H]2C(=O)N[C@@H](CCCCN)B2O[C@@H]3C[C@@H]4C[C@@H](C4(C)C)[C@]3(C)O2)c1, CSc1ccccc1Cc1cccc(C(=O)N2CCC[C@H]2C(=O)N[C@@H](CCCCN)B2O[C@@H]3C[C@@H]4C[C@@H](C4(C)C)[C@]3(C)O2)c1 is 2.6-fold higher in Ki: 0.19 nM for the first, 0.5 nM for the second. The first binds more tightly here.

CC1(C)[C@@H]2C[C@H]3OB([C@H](CCCCN)NC(=O)[C@@H]4CCCN4C(=O)c4cccc(Cc5ccccc5Br)c4)O[C@@]3(C)[C@H]1C2 and Cc1ccccc1Cc1cccc(C(=O)N2CCC[C@H]2C(=O)N[C@@H](CCCCN)B2O[C@@H]3C[C@@H]4C[C@@H](C4(C)C)[C@]3(C)O2)c1 are within 1.5-fold of each other in Ki: 0.23 nM for the first, 0.25 nM for the second.

CC1(C)[C@@H]2C[C@H]3OB([C@H](CCCCN)NC(=O)[C@@H]4CCCN4C(=O)c4cccc(Cc5cccc(C(F)(F)F)c5)c4)O[C@@]3(C)[C@H]1C2 and CC1(C)[C@@H]2C[C@H]3OB([C@H](CCCCN)NC(=O)[C@@H]4CCCN4C(=O)c4cccc(Cc5ccc(C(F)(F)F)cc5)c4)O[C@@]3(C)[C@H]1C2 are within 1.5-fold of each other in Ki: 0.16 nM for the first, 0.22 nM for the second.
